Source: patent US20120122860A1, “SOLID FORMS OF SULFONAMIDES AND AMINO ACIDS” (Plexxikon, Inc., priority 2009, published 2012)

Key:
[1] = target: B-Raf V600E (Homo sapiens, UniProt P15056, V600E); assay: Kinase activity assay, B-Raf V600E; assay type: biochemical; settings: read-out: activity toward kinase B-Raf V600E, IC50
[2] = target: Kdr (Homo sapiens, UniProt P35968); assay: Kinase activity assay, Kdr
[3] = target: Src (Homo sapiens, UniProt P12931); assay: Kinase activity assay, Src
[4] = target: B-Raf (Homo sapiens, UniProt P15056); assay: Kinase activity assay, B-Raf; assay type: biochemical; settings: read-out: activity toward kinase B-Raf, IC50
[5] = target: C-Raf (Homo sapiens, UniProt P04049); assay: Kinase activity assay, C-Raf
[6] = target: Kit (Homo sapiens, UniProt P10721); assay: Kinase activity assay, Kit

Measured: IC50

Kdr, sequence (P35968 20-1356): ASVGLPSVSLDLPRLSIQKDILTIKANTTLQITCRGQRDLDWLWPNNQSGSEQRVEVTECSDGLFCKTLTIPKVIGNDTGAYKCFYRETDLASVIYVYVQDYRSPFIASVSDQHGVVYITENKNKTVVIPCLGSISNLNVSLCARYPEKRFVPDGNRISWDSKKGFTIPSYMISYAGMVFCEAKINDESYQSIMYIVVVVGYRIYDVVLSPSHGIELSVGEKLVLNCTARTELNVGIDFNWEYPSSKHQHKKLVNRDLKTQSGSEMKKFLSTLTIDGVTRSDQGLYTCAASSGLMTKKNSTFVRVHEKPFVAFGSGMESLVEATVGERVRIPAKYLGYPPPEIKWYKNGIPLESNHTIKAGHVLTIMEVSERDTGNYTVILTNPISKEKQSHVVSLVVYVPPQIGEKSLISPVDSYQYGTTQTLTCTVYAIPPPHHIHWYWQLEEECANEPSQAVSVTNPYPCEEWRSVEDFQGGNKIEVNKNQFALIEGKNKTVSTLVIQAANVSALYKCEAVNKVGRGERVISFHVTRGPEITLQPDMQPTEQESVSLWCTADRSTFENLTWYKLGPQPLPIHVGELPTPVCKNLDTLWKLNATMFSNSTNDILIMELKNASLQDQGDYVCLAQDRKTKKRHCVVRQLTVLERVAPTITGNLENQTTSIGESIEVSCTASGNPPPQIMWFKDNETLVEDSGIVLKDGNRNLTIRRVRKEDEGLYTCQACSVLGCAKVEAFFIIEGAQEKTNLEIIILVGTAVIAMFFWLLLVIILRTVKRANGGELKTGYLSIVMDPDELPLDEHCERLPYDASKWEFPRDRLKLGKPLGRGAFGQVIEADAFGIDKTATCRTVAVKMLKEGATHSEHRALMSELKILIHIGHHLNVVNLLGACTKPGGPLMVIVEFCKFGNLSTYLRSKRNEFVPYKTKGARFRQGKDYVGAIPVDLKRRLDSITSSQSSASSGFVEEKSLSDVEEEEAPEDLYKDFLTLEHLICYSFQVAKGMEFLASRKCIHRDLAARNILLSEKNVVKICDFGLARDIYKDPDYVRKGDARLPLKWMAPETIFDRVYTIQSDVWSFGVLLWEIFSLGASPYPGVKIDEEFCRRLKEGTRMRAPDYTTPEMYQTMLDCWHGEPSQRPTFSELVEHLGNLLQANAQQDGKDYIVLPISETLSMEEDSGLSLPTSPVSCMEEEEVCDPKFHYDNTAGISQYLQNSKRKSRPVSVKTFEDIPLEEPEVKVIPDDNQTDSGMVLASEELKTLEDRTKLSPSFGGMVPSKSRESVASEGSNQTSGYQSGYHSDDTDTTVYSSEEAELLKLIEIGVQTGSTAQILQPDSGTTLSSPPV
B-Raf V600E, sequence (P15056 whole entry V600E): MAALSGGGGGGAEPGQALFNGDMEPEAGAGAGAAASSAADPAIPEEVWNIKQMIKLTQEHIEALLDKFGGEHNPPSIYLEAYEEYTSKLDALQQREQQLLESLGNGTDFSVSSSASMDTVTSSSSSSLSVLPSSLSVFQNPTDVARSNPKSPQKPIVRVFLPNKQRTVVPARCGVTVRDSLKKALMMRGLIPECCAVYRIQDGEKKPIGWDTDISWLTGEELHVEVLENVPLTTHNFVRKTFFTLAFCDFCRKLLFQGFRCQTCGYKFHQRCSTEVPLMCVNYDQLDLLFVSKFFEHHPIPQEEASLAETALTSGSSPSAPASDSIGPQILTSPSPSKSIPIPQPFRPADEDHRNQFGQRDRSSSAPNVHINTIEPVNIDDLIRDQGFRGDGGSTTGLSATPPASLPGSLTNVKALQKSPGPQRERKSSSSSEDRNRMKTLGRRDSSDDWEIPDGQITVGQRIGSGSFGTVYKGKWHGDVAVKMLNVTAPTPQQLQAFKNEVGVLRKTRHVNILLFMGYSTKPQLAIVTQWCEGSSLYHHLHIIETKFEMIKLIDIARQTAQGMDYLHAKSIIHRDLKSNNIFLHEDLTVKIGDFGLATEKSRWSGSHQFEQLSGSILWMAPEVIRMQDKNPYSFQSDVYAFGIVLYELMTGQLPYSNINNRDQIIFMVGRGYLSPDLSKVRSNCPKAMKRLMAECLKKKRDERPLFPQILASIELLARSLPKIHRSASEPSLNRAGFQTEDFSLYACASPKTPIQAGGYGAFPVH
Src, sequence (P12931 whole entry): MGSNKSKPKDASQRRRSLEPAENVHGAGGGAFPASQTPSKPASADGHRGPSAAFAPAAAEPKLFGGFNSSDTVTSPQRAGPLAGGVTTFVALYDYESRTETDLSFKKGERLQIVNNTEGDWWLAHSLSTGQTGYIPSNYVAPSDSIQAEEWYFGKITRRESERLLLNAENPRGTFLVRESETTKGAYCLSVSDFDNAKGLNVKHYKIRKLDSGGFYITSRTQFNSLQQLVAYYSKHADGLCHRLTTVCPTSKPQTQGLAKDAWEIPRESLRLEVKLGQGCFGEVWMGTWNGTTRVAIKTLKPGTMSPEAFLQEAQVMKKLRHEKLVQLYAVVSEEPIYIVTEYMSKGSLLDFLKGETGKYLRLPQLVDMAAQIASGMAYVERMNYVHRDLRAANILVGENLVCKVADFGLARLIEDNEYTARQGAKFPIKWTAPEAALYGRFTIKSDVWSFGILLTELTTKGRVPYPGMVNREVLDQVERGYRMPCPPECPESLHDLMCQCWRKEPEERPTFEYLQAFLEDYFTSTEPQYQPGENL
C-Raf, sequence (P04049 whole entry): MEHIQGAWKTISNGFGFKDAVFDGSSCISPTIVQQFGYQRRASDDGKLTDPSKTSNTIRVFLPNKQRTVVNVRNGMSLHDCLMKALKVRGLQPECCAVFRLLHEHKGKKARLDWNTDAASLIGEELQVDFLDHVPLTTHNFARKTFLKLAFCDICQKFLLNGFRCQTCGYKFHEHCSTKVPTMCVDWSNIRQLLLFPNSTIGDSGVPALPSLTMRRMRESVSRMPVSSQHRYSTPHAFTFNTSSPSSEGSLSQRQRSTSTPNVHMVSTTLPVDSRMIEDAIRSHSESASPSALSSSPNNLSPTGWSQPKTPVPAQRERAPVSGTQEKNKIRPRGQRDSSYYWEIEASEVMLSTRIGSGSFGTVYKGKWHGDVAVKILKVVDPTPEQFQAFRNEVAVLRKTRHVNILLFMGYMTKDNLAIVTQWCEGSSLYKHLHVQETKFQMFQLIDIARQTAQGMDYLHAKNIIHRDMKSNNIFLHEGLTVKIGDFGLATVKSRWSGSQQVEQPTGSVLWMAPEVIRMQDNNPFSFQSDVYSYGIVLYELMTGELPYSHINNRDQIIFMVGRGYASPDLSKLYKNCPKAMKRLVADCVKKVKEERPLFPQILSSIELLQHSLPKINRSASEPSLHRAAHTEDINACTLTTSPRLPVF
B-Raf, sequence (P15056 whole entry): as the sequence (P15056 whole entry V600E) above, with E600V counted along it
Kit, sequence (P10721 26-976): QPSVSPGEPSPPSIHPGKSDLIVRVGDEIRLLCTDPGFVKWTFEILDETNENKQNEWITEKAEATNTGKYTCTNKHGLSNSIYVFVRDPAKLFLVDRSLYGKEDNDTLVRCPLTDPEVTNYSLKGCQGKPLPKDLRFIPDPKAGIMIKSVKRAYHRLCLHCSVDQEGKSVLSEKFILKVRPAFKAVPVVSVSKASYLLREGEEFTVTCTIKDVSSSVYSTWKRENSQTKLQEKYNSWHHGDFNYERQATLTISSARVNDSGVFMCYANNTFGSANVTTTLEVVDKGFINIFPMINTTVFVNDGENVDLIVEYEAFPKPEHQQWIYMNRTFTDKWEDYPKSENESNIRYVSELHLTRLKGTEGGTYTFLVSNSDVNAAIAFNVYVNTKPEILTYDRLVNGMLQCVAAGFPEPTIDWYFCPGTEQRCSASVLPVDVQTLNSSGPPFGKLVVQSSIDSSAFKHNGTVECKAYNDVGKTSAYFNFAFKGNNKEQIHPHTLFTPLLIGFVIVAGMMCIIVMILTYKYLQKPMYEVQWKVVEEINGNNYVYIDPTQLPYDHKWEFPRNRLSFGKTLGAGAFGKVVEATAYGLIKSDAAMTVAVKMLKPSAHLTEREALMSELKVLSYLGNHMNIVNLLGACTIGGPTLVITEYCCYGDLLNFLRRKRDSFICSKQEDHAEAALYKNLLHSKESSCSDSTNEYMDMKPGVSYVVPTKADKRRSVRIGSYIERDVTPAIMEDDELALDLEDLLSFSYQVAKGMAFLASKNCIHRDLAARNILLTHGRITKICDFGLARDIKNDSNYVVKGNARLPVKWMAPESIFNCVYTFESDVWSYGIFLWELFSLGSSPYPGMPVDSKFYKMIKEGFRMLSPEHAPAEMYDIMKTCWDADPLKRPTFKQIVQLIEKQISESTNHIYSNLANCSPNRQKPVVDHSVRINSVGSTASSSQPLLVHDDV

CCCS(=O)(=O)Nc1ccc(F)c(C(=O)c2c[nH]c3ncc(-c4ccc(Cl)c(C(F)(F)F)c4)cc23)c1F [P-2171, Propane-1-sulfonic acid {3-[5-(4-chloro-3-trifluoromethyl-phenyl)-1H-pyrrolo[2,3-b]pyridine-3-carbonyl]-2,4-difluoro-phenyl}-amide]
≤ 10 µM: [1] | [2] | [3] | [4]

COc1ccnc2[nH]cc(C(=O)c3c(F)ccc(NS(=O)(=O)c4cccnc4)c3F)c12 [P-2073, Pyridine-3-sulfonic acid [2,4-difluoro-3-(4-methoxy-1H-pyrrolo[2,3-b]pyridine-3-carbonyl)-phenyl]-amide]
≤ 10 µM: [1] | [5] | [3] | [4]

CCCS(=O)(=O)Nc1ccc(F)c(C(=O)c2c[nH]c3ncc(-c4cc(C)nn4C)cc23)c1F [P-2195, Propane-1-sulfonic acid {3-[5-(2,5-dimethyl-2H-pyrazol-3-yl)-1H-pyrrolo[2,3-b]pyridine-3-carbonyl]-2,4-difluoro-phenyl}-amide]
not listed: [5]
≤ 10 µM: all other assays above

N#Cc1cnc2[nH]cc(C(=O)c3cccc(NS(=O)(=O)c4ccc(F)cc4F)c3F)c2c1 [P-2055, N-[3-(5-Cyano-1H-pyrrolo[2,3-b]pyridine-3-carbonyl)-2-fluoro-phenyl]-2,4-difluoro-benzenesulfonamide]
≤ 10 µM: all assays above

O=C(c1cccc(NS(=O)(=O)c2ccc(C(F)(F)F)cc2)c1)c1c[nH]c2ncc(Cl)cc12 [P-2126, N-[3-(5-Chloro-1H-pyrrolo[2,3-b]pyridine-3-carbonyl)-phenyl]-4-trifluoromethyl-benzenesulfonamide]
≤ 10 µM: [2] | [6] | [4]

COc1ccnc2[nH]cc(C(=O)c3c(F)ccc(NS(=O)(=O)C(C)C)c3F)c12 [P-2280, Propane-2-sulfonic acid [2,4-difluoro-3-(4-methoxy-1H-pyrrolo[2,3-b]pyridine-3-carbonyl)-phenyl]-amide]
not listed: [6]
≤ 10 µM: all other assays above

CN(C)S(=O)(=O)Nc1cccc(C(=O)c2c[nH]c3ncc(C#N)cc23)c1F [P-2419, N,N-dimethylamino-sulfonic acid [3-(5-cyano-1H-pyrrolo[2,3-b]pyridine-3-carbonyl)-2-fluoro-phenyl]-amide]
≤ 10 µM: [1] | [6]

CCCS(=O)(=O)Nc1ccc(F)c(C(=O)c2c[nH]c3ncc(-c4ccc(Cl)nc4)cc23)c1F [P-2154, Propane-1-sulfonic acid {3-[5-(6-chloro-pyridin-3-yl)-1H-pyrrolo[2,3-b]pyridine-3-carbonyl]-2,4-difluoro-phenyl}-amide]
not listed: [6]
≤ 10 µM: all other assays above

O=C(c1c(F)ccc(NS(=O)(=O)c2ccc(C(F)(F)F)nc2)c1F)c1c[nH]c2ncc(Cl)cc12 [P-2481, 6-Trifluoromethyl-pyridine-3-sulfonic acid [3-(5-chloro-1H-pyrrolo[2,3-b]pyridine-3-carbonyl)-2,4-difluoro-phenyl]-amide]
≤ 10 µM: [5] | [2] | [3] | [4]

O=C(c1cc(NS(=O)(=O)c2ccc(OC(F)(F)F)cc2)ccc1F)c1c[nH]c2ncc(Cl)cc12 [P-2109, N-[3-(5-Chloro-1H-pyrrolo[2,3-b]pyridine-3-carbonyl)-4-fluoro-phenyl]-4-trifluoromethoxy-benzenesulfonamide]
≤ 10 µM: [2] | [6] | [4]

Cc1cnc2[nH]cc(C(=O)c3cccc(NS(=O)(=O)c4ccc(C(F)(F)F)cc4)c3F)c2c1 [P-2059, N-[2-Fluoro-3-(5-methyl-1H-pyrrolo[2,3-b]pyridine-3-carbonyl)-phenyl]-4-trifluoromethyl-benzenesulfonamide]
not listed: [6]
≤ 10 µM: all other assays above

CCCS(=O)(=O)Nc1ccc(F)c(C(=O)c2c[nH]c3ncc(/C=C/C(=O)OC)cc23)c1F [P-2225, (E)-3-{3-[2,6-Difluoro-3-(propane-1-sulfonylamino)-benzoyl]-1H-pyrrolo[2,3-b]pyridin-5-yl}-acrylic acid methyl ester]
not listed: [6]
≤ 10 µM: all other assays above

CCCS(=O)(=O)Nc1ccc(F)c(C(=O)c2c[nH]c3ncc(-c4c(C)noc4C)cc23)c1F [P-2156, Propane-1-sulfonic acid {3-[5-(3,5-dimethyl-isoxazol-4-yl)-1H-pyrrolo[2,3-b]pyridine-3-carbonyl]-2,4-difluoro-phenyl}-amide]
≤ 10 µM: [1] | [2] | [3]

COc1ccnc2[nH]cc(C(=O)c3c(F)ccc(NS(=O)(=O)CC(F)(F)F)c3F)c12 [P-2340, 2,2,2-Trifluoro-ethanesulfonic acid [2,4-difluoro-3-(4-methoxy-1H-pyrrolo[2,3-b]pyridine-3-carbonyl)-phenyl]-amide]
≤ 10 µM: [1] | [5] | [3] | [4]

O=C(c1cccc(NS(=O)(=O)c2ccc(C(F)(F)F)cc2)c1F)c1c[nH]c2ncc(Cl)cc12 [P-2058, N-[3-(5-Chloro-1H-pyrrolo[2,3-b]pyridine-3-carbonyl)-2-fluoro-phenyl]-4-trifluoromethyl-benzenesulfonamide]
not listed: [3]
≤ 10 µM: all other assays above

CCCC(C)S(=O)(=O)Nc1ccc(F)c(C(=O)c2c[nH]c3ncc(Cl)cc23)c1F (stereo not shown) [P-2311, Pentane-2-sulfonic acid [3-(5-chloro-1H-pyrrolo[2,3-b]pyridine-3-carbonyl)-2,4-difluoro-phenyl]-amide]
not listed: [4]
≤ 10 µM: all other assays above

CCCS(=O)(=O)Nc1ccc(F)c(C(=O)c2c[nH]c3ncc(-c4c(-c5ccccc5)noc4C)cc23)c1F [P-2191, Propane-1-sulfonic acid {2,4-difluoro-3-[5-(5-methyl-3-phenyl-isoxazol-4-yl)-1H-pyrrolo[2,3-b]pyridine-3-carbonyl]-phenyl}-amide]
≤ 10 µM: [1] | [2] | [3] | [4]

O=C(c1c(F)ccc(NS(=O)(=O)CCC(F)(F)F)c1F)c1c[nH]c2ncc(-c3ccc(Cl)cc3)cc12 [P-2325, 3,3,3-Trifluoro-propane-1-sulfonic acid {3-[5-(4-chloro-phenyl)-1H-pyrrolo[2,3-b]pyridine-3-carbonyl]-2,4-difluoro-phenyl}-amide]
≤ 10 µM: [3] | [6]

COc1ccnc2[nH]cc(C(=O)c3c(F)ccc(NS(C)(=O)=O)c3F)c12 [P-2293, N-[2,4-Difluoro-3-(4-methoxy-1H-pyrrolo[2,3-b]pyridine-3-carbonyl)-phenyl]-methanesulfonamide]
≤ 10 µM: [1] | [5] | [2] | [6]

N#Cc1cnc2[nH]cc(C(=O)c3c(F)ccc(NS(=O)(=O)Cc4cccnc4)c3F)c2c1 [P-2094, N-[3-(5-Cyano-1H-pyrrolo[2,3-b]pyridine-3-carbonyl)-2,4-difluoro-phenyl]-C-pyridin-3-yl-methanesulfonamide]
≤ 10 µM: [1] | [2] | [6]

CCCS(=O)(=O)Nc1ccc(F)c(C(=O)c2c[nH]c3ncc(C(=O)N(C)C)cc23)c1F [P-2237, 3-[2,6-Difluoro-3-(propane-1-sulfonylamino)-benzoyl]-1H-pyrrolo[2,3-b]pyridine-5-carboxylic acid dimethyl amide]
≤ 10 µM: [2] | [3] | [4]

CCCS(=O)(=O)Nc1ccc(F)c(C(=O)c2c[nH]c3ncc(-c4ccc(S(=O)(=O)N5CCCC5)cc4)cc23)c1F [P-2227, Propane-1-sulfonic acid (2,4-difluoro-3-{5-[4-(pyrrolidine-1-sulfonyl)-phenyl]-1H-pyrrolo[2,3-b]pyridine-3-carbonyl}-phenyl)-amide]
≤ 10 µM: [1] | [5] | [2] | [4]
